Our source for the IC50 and Ki values is ChEMBL document CHEMBL1909046, “DrugMatrix in vitro pharmacology data”.

Data set [1] deals with T1, Cysteinyl leukotriene receptor 1 (Homo sapiens, UniProt Q9Y271).
T1 sequence (Q9Y271 whole entry): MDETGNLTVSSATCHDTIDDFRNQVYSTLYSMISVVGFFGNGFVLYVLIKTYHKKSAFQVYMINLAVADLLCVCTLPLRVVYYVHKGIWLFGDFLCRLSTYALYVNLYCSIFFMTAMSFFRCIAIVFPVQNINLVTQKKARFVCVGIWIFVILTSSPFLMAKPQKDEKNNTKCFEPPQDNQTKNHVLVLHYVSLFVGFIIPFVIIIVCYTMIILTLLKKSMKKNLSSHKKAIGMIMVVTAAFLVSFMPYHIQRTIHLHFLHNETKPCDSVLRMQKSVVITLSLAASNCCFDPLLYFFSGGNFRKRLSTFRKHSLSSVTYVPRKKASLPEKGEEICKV
It is filed as cell membranes, CHO-K1, Membrane. The conditions noted are these: cho-k1.

In a further data set the target is T2, Substance-K receptor (Homo sapiens, UniProt P21452). Note: in other assays of this panel Not Active means under 50% inhibition at 10 µM.
T2 sequence (P21452 whole entry): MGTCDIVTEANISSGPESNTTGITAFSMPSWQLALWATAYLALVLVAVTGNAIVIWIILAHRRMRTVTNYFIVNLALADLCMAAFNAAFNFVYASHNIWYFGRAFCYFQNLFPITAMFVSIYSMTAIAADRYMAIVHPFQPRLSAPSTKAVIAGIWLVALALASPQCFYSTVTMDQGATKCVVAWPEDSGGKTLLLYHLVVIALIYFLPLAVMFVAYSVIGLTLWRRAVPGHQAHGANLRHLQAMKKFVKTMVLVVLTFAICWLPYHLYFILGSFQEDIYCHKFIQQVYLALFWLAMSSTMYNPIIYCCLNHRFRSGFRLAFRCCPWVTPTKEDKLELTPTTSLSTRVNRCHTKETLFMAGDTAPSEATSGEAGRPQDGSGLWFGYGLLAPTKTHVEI
The data set is classed as cell membranes, CHO, Membrane.

The target in the next data set is Vasopressin V1a receptor (Homo sapiens, UniProt P37288). The data set is classed as cell membranes, Membrane. To be noted: hek293. Note: in other assays of this panel Not Active means under 50% inhibition at 10 µM.
The nature of data set [2]: DRUGMATRIX: GABAA, Muscimol, Central radioligand binding (ligand: [3H] Muscimol). The conditions noted are these: Not Active = under 50% inhibition at 10 µM. The data set is classed as cell membranes, Rattus norvegicus, Wistar, Brain, Membrane.
The nature of data set [3]: DRUGMATRIX: ATPase, Na+/K+ enzyme inhibition (substrate: ATP). The data set is classed as tissue-based, Sus scrofa, Heart. To be noted: Not Active = under 50% inhibition at 10 µM.
A further data set has as its target Cytochrome P450 2E1 (Homo sapiens, UniProt P05181). To be noted: bti-tn-5b1-4. Note: in other assays of this panel Not Active means under 50% inhibition at 10 µM.
The nature of data set [4]: DRUGMATRIX: Sodium/nucleoside co-transporter radioligand binding (ligand: nitrobenzylthioinosine). To be noted: Not Active = under 50% inhibition at 10 µM. It is filed as cell membranes, Cavia porcellus, Dunkin-Hartley, Cerebral cortex, Membrane.
Another data set concerns the target Histamine H2 receptor (Homo sapiens, UniProt P25021). It is filed as cell membranes, CHO-K1, Membrane. The conditions noted are these: cho-k1. Note: in other assays of this panel Not Active means under 50% inhibition at 10 µM.
The target of the next data set is Cannabinoid receptor 1 (Homo sapiens, UniProt P21554). The data set is classed as cell membranes, Membrane. The conditions noted are these: chem-1. Note: in other assays of this panel Not Active means under 50% inhibition at 10 µM.
A further data set deals with Nitric oxide synthase 1 (Rattus norvegicus, UniProt P29476). It is filed as tissue-based, Cerebellum.
For data set [5], the target named is T3, Type-2 angiotensin II receptor (Homo sapiens, UniProt P50052). Note: in other assays of this panel Not Active means under 50% inhibition at 10 µM.
T3 sequence (P50052 whole entry): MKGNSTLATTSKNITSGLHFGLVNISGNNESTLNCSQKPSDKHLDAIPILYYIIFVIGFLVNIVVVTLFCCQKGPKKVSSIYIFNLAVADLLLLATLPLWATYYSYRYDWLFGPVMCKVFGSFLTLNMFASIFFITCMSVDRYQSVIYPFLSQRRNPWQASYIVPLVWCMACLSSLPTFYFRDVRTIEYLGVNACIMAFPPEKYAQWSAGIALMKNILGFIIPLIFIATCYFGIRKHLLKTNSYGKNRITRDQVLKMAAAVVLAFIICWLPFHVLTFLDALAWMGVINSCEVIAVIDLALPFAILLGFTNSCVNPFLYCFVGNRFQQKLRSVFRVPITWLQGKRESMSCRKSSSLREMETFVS
It is filed as cell-based. The conditions noted are these: cho-k1.

Data set [6] concerns the target Vascular endothelial growth factor receptor 1 (Homo sapiens, UniProt P17948). The data set is classed as cell-based. To be noted: huvec. Note: in other assays of this panel Not Active means under 50% inhibition at 10 µM.
The next data set concerns the target T4, D(4) dopamine receptor (Homo sapiens, UniProt P21917).
T4 sequence (P21917 whole entry): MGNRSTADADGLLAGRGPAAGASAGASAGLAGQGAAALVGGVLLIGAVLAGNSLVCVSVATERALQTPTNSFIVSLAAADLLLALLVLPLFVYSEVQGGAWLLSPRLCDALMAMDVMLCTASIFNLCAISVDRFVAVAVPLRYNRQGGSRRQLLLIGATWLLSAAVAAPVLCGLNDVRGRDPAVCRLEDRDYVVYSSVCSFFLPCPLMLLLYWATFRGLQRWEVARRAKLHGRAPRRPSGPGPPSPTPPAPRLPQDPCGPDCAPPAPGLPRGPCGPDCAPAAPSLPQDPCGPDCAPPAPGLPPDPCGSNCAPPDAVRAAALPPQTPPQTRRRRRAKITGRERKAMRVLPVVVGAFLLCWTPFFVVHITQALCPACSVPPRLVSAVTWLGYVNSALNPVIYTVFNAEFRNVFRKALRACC
As to the kind of experiment: DRUGMATRIX: Dopamine D4.2 radioligand binding (ligand: [3H] Spiperone). It is filed as cell membranes, CHO-K1, Membrane. To be noted: cho-k1; Not Active = under 50% inhibition at 10 µM.

In another data set the target is T5, Adenosine receptor A3 (Homo sapiens, UniProt P0DMS8).
T5 sequence (P0DMS8 whole entry): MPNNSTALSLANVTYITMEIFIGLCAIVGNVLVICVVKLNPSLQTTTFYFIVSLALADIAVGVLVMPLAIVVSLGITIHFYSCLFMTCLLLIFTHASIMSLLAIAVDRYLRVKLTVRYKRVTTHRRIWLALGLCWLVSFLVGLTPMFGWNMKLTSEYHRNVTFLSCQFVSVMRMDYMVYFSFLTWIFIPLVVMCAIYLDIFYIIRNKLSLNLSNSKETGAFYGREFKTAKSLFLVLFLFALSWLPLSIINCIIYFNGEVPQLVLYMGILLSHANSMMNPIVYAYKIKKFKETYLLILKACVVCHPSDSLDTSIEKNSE
The data set is classed as cell membranes, CHO-K1, Membrane. The conditions noted are these: cho-k1.

Data set [7] deals with C-C chemokine receptor type 5 (Homo sapiens, UniProt P51681). It is filed as cell membranes, Membrane. To be noted: hek293.
Data set [8] in a line: DRUGMATRIX: Imidazoline I2, Central radioligand binding (ligand: [3H] Idazoxan). It is filed as cell membranes, Rattus norvegicus, Wistar, Cerebral cortex, Membrane. To be noted: Not Active = under 50% inhibition at 10 µM.
Data set [9] addresses Platelet-activating factor receptor (Homo sapiens, UniProt P25105). As to the kind of experiment: biochemical. The data set is classed as tissue-based. The conditions noted are these: platelet.
Data set [10] has as its target Mitogen-activated protein kinase 3 (Homo sapiens, UniProt P27361). As to the kind of experiment: DRUGMATRIX: Protein Serine/Threonine Kinase, ERK1 enzyme inhibition (substrate: Myelin Basic Protein). To be noted: Not Active = under 50% inhibition at 10 µM. Also noted: species or system Escherichia coli.

Sequence of Cannabinoid receptor 1 (P21554 whole entry): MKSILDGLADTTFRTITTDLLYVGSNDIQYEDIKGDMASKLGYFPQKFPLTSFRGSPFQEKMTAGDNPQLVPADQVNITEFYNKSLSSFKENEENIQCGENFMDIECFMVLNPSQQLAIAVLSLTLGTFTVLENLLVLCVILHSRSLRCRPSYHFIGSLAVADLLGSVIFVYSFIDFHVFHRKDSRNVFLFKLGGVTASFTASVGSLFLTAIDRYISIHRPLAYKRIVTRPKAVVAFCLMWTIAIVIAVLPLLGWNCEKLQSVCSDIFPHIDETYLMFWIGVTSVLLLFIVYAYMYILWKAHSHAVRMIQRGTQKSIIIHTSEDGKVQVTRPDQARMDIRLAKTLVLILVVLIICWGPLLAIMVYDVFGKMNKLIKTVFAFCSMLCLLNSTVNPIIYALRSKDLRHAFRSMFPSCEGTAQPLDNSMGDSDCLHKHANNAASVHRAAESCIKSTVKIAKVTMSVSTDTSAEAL
Sequence of Cytochrome P450 2E1 (P05181 whole entry): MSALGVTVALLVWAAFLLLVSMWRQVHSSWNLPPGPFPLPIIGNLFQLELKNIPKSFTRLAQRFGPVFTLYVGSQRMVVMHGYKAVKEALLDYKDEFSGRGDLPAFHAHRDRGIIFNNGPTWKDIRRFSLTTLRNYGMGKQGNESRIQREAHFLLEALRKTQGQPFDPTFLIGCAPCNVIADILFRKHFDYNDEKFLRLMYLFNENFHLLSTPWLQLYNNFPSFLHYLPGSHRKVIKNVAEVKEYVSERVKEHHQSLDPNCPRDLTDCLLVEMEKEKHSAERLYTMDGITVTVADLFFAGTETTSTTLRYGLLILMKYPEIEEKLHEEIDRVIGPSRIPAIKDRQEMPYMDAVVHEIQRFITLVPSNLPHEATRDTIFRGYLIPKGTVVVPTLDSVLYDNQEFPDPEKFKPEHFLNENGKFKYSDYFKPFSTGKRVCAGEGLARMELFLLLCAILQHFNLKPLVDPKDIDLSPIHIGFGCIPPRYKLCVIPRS
Sequence of Histamine H2 receptor (P25021 whole entry): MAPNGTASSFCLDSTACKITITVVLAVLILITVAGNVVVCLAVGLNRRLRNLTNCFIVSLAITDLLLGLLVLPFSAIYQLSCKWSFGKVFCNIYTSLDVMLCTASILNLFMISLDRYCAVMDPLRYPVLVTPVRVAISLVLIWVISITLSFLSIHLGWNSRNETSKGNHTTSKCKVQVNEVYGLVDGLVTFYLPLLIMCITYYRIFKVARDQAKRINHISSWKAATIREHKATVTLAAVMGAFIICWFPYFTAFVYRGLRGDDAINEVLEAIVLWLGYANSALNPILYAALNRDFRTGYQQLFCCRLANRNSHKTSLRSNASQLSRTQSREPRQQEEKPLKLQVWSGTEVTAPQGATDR
Sequence of Vasopressin V1a receptor (P37288 whole entry): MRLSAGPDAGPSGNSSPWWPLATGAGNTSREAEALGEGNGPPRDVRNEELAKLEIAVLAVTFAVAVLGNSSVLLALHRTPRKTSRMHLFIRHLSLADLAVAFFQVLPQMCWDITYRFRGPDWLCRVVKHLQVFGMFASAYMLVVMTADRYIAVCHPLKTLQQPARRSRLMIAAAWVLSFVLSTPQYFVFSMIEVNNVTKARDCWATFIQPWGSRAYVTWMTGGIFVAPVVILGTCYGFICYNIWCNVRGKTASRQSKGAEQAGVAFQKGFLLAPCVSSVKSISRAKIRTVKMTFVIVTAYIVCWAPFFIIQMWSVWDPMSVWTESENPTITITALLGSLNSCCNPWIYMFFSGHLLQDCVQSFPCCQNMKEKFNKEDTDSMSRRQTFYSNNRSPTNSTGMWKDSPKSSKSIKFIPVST
Sequence of Mitogen-activated protein kinase 3 (P27361 whole entry): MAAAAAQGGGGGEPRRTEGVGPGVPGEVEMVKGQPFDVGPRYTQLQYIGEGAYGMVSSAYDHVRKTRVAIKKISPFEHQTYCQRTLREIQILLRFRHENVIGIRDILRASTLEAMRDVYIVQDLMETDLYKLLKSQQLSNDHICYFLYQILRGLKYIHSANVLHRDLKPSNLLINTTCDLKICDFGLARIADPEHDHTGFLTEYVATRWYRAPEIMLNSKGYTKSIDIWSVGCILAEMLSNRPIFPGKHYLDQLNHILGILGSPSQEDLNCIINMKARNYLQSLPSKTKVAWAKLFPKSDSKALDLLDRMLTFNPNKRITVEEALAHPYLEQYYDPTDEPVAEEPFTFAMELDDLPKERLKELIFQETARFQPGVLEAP
Sequence of Nitric oxide synthase 1 (P29476 whole entry): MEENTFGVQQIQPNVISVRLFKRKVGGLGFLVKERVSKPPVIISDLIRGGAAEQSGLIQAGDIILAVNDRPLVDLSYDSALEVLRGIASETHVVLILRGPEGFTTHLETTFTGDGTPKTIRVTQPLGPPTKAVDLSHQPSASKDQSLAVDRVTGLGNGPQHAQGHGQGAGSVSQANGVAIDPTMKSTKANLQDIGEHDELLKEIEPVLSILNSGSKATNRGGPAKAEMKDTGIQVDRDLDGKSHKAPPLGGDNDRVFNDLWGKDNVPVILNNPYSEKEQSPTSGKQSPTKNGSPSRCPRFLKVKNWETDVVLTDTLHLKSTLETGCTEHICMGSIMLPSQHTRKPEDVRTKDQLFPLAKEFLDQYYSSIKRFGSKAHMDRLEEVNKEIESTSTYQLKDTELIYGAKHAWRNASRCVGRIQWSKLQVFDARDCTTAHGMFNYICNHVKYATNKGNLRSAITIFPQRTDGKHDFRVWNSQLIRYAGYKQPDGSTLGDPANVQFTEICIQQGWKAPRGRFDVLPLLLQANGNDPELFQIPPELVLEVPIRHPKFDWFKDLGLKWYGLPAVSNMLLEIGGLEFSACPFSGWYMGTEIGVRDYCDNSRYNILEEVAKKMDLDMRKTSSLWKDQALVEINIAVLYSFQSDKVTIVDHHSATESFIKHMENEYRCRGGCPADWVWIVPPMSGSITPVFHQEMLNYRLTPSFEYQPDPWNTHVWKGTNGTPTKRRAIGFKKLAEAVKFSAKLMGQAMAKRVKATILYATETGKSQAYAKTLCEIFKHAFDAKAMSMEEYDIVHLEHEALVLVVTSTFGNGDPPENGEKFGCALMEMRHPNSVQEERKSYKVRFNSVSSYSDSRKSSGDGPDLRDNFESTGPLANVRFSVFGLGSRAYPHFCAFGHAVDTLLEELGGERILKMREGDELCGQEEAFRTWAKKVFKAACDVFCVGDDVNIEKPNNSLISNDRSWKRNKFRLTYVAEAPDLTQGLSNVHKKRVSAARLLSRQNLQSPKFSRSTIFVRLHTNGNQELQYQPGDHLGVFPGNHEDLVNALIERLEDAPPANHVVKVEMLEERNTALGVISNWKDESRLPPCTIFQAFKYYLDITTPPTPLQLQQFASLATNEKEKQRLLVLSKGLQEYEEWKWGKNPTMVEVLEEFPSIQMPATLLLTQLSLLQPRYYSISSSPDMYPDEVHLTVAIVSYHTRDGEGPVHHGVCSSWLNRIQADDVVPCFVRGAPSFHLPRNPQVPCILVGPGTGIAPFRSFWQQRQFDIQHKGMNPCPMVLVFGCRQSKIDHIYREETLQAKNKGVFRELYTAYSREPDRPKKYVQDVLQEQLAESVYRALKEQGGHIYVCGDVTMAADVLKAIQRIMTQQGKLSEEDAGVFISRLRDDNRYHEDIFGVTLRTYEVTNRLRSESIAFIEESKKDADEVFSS
Sequence of Vascular endothelial growth factor receptor 1 (P17948 whole entry): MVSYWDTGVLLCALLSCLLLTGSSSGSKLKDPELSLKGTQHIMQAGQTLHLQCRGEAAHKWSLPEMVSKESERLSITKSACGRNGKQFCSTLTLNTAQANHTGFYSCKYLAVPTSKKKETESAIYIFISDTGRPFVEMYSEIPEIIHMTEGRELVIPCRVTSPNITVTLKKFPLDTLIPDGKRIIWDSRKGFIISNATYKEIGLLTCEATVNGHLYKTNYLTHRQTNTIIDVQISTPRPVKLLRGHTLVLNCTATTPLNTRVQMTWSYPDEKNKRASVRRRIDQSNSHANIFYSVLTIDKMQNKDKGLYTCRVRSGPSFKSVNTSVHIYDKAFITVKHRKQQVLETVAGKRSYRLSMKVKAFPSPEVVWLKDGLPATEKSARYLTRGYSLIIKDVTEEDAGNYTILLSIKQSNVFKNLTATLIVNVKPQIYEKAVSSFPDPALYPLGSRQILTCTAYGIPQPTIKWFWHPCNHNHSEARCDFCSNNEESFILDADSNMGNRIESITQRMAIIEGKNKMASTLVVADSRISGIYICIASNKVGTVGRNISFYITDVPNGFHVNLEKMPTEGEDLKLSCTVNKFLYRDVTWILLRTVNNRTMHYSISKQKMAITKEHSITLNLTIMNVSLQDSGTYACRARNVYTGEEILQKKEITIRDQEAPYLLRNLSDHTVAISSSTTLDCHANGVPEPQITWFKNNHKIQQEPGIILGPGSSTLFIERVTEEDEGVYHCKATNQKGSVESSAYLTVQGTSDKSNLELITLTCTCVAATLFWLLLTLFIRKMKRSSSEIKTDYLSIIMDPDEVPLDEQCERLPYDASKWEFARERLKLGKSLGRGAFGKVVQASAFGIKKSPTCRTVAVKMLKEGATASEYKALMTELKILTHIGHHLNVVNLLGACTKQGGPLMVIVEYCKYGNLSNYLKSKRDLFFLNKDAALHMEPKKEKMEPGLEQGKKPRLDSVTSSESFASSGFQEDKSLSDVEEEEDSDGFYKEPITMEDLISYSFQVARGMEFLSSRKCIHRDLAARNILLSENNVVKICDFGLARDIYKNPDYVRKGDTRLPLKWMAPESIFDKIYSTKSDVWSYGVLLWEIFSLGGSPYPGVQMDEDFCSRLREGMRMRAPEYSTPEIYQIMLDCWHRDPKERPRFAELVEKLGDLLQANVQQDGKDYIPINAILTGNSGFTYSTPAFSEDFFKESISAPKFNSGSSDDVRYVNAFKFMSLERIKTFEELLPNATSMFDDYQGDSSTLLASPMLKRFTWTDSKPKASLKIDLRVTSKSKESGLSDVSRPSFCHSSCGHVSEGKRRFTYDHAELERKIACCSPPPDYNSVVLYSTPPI

As to `CCOC(=O)[C@H](CCc1ccccc1)N[C@@H](C)C(=O)N1[C@H](C(=O)O)C[C@@H]2CCC[C@@H]21`, the IC50 result (in [1]; on Substance-K receptor (cho); against Vasopressin V1a receptor; in data set [2]; in data set [3]; against Cytochrome P450 2E1) was “Not Active” throughout. For the same compound, the IC50 result (in data set [4]; on Histamine H2 receptor; on Cannabinoid receptor 1; on Nitric oxide synthase 1; in data set [5]; in data set [6]) was “Not Active” in each case. Further, the IC50 result (at D(4) dopamine receptor; against Adenosine receptor A3; in data set [7]; in data set [8]; in data set [9]; in data set [10]) was “Not Active” each time. The Ki result (in data set [2]; in [3]; on Cytochrome P450 2E1; in [4]; in data set [8]) was “Not Active” in each case.

Consider `CC(C)(C)NC(=O)[C@@H]1CN(Cc2cccnc2)CCN1C[C@@H](O)C[C@@H](Cc1ccccc1)C(=O)N[C@H]1c2ccccc2C[C@H]1O.O`, for which the IC50 result in data set [1] was “Not Active”; at Substance-K receptor (read-out: IC50), 5.1 µM; against Vasopressin V1a receptor, “Not Active”; in data set [2], “Not Active”; in data set [3], “Not Active”; against Cytochrome P450 2E1, “Not Active”. The IC50 result (in data set [4]; against Histamine H2 receptor; against Cannabinoid receptor 1; on Nitric oxide synthase 1; in data set [5]; in data set [6]) was “Not Active” throughout. Also, the IC50 entry (on D(4) dopamine receptor; against Adenosine receptor A3; in data set [7]; in data set [8]; in data set [9]; in [10]) was “Not Active” in each case. Further, the Ki is 1.7 µM on Substance-K receptor (read-out: Ki); “Not Active” in data set [2]; “Not Active” in data set [3]; “Not Active” on Cytochrome P450 2E1; “Not Active” in [4]; “Not Active” in data set [8].

Take `CC1(C)[C@H]2CC[C@]1(C)C(=O)C2` [(-)-CAMPHOR]: the IC50 entry (in data set [1]; at Substance-K receptor (cho); on Vasopressin V1a receptor; in data set [2]; in data set [3]; on Cytochrome P450 2E1) was “Not Active” each time. For the same compound, the 50% inhibitory concentration (IC50) result (in data set [4]; at Histamine H2 receptor; on Cannabinoid receptor 1; at Nitric oxide synthase 1; in data set [5]; in data set [6]) was “Not Active” throughout. In addition, the IC50 result (at D(4) dopamine receptor; on Adenosine receptor A3; in data set [7]; in data set [8]; in data set [9]; in data set [10]) was “Not Active” in each case. For the same compound, the Ki entry (in [2]; in data set [3]; at Cytochrome P450 2E1; in data set [4]; in [8]) was “Not Active” throughout.

For orientation: IC50 means the midpoint of a concentration-inhibition curve. Usually Ki stands for a dissociation constant, usually derived from enzyme kinetics or from competition with a known ligand.
